Experimental findings from patent US8067613B2 (Abbott Laboratories, priority 2007, dated 2011) are described below.

The structures appear in SMILES notation.

In the test the target is T1, Recombinant Human Poly(ADP-Ribose)Polymerase (PARP), PARP-1 (Homo sapiens, UniProt P09874).
T1 construct: purchased Trevigen (Gaithersburg, Md.); host or cells: E. coli
As to the kind of experiment: PARP1 assay (SPA/FlashPlate, [3H]-NAD+ incorporation into biotinylated histone H1). It is filed as biochemical. Particulars: 1 nM PARP enzyme, 1.5 μM [3H]-NAD+, 200 nM biotinylated histone H1, 200 nM slDNA; Ki from inhibition curves at various substrate concentrations. Here is the method: Nicotinamide[2,5′,8-3H]adenine dinucleotide and strepavidin SPA beads were obtained from Amersham Biosiences (UK). Recombinant Human Poly(ADP-Ribose)Polymerase (PARP), purified from E. coli and 6-Biotin-17-NAD^+, were obtained from Trevigen (Gaithersburg, Md.). NAD^+, histone, aminobenzamide, 3-aminobenzamide and Calf Thymus DNA (dcDNA) were obtained from Sigma (St. Louis, Mo.). Stem loop oligonucleotide containing MCAT sequence was obtained from Qiagen. The oligos were dissolved to 1 mM in annealing buffer containing 10 mM Tris HCl (pH 7.5), 1 mM EDTA, and 50 mM NaCl, incubated for 5 minutes at 95° C. and annealed at 45° C. for 45 minutes. Histone H1 (95% electrophoretically pure) was obtained from Roche (Indianapolis, Ind. Biotinylated histone H1 was prepared by treating the protein with Sulfo-NHS-LC-Biotin (Pierce Rockford, Ill.). The biotinylation reaction was conducted by slowly and intermittently adding 3 equivalents of 10 mM Sulfo-NHS-LC-Biotin to 100 μM Histone H1 in phosphate-buffered saline, pH 7.5, at 4° C. with gentle vortexing over 1 minute then incubation at 4° C. for 1 hour. Streptavidin coated (FlashPlate Plus) microplates were obtained from Perkin Elmer (Boston, Mass.).
PARP1 assay was conducted in PARP assay buffer containing 50 mM tris (pH 8.0), 1 mM DTT and 4 mM MgCl2. PARP reactions contained 1.5 μM [^3H]-NAD^+ (1.6 μCi/mmol), 200 nM biotinylated histone H1, 200 nM slDNA, and 1 nM PARP enzyme. Auto reactions utilizing SPA bead-based detection were carried out in 100 μL volumes in white 96 well plates.
Reactions were initiated by adding 50 μL of 2×NAD^+ substrate mixture to 50 μL of 2× enzyme mixture containing PARP and DNA. These reactions were terminated by the addition of 150 μL of 1.5 mM benzamide (1000-fold over its IC50). 170 μL of the stopped reaction mixtures were transferred to streptavidin Flash Plates, incubated for 1 hour and counted using a TopCount microplate scintillation counter. The Ki data (in nM) for representative compounds of this invention were determined from inhibition curves at various substrate concentrations and are shown in TABLE 1.

T1 sequence (P09874 whole entry): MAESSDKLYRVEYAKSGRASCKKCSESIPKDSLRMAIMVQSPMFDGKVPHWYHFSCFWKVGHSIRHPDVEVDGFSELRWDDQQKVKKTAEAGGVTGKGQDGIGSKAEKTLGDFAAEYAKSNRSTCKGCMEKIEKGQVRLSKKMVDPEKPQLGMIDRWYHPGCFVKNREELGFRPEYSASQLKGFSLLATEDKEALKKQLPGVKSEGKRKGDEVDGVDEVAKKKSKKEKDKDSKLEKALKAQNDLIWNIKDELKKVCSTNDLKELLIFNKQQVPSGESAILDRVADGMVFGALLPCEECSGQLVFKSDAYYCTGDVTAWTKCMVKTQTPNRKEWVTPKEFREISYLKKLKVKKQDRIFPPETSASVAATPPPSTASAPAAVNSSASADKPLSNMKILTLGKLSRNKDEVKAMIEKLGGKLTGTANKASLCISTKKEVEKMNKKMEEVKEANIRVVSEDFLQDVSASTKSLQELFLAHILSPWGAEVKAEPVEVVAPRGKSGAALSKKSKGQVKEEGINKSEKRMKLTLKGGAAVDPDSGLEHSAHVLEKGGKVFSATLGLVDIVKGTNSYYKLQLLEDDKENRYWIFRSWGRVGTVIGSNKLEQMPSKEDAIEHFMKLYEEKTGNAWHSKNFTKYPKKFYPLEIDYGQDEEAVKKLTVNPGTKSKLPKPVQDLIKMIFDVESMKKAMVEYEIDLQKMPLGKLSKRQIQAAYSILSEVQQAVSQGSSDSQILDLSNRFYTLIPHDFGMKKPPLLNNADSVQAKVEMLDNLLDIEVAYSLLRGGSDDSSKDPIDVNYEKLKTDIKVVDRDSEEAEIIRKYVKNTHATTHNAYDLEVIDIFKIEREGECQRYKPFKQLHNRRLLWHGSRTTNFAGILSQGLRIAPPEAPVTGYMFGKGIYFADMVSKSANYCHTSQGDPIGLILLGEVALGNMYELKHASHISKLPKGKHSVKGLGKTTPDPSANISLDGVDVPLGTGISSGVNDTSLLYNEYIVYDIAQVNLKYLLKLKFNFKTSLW

By Ki is commonly meant a dissociation constant, usually derived from enzyme kinetics or from competition with a known ligand. With `CCCN1CCCC1c1ccc(-c2nc3c(C(N)=O)cccc3[nH]2)s1` (centres unmarked) [Example 37, 2-(5-(1-propylpyrrolidin-2-yl)thien-2-yl)-1H-benzimidazole-4-carboxamide], the Ki is 7 nM.
As for `CC(C)CN1CCC[C@@H]1c1ccc(-c2nc3c(C(N)=O)cccc3[nH]2)s1` [Example 27, 2-(5-((2R)-1-isobutylpyrrolidin-2-yl)thien-2-yl)-1H-benzimidazole-4-carboxamide], the Ki stood at 8 nM.
To `NC(=O)c1cccc2[nH]c(-c3ccc(C4CCCN4)nc3)nc12` (centres unmarked) [Example 43, 2-(6-pyrrolidin-2-ylpyridin-3-yl)-1H-benzimidazole-4-carboxamide] belongs 3 nM; to `CC(C)CN1CCCC1c1ccc(-c2nc3c(C(N)=O)cccc3[nH]2)s1` (centres unmarked) [Example 39, 2-(5-(1-isobutylpyrrolidin-2-yl)thien-2-yl)-1H-benzimidazole-4-carboxamide], 11 nM; to `NC(=O)c1cccc2[nH]c(-c3ccc(C4CCCN4C4CCOCC4)nc3)nc12` (centres unmarked) [Example 49, 2-[6-(1-tetrahydro-2H-pyran-4-ylpyrrolidin-2-yl),pyridin-3-yl]-1H-benzimidazole-4-carboxamide], 17 nM.
Take `CCCN1CCC(c2nc(-c3nc4c(C(N)=O)cccc4[nH]3)cs2)CC1` [Example 8, 2-(2-(1-propylpiperidin-4-yl)-1,3-thiazol-4-yl)-1H-benzimidazole-4-carboxamide]: the Ki came to 50 nM.
For `NC(=O)c1cccc2[nH]c(-c3ccc(C4CCCN4CC4CC4)s3)nc12` (centres unmarked) [Example 38, 2-(5-(1-(cyclopropylmethyl)pyrrolidin-2-yl)thien-2-yl)-1H-benzimidazole-4-carboxamide], the inhibition constant Ki amounted to 6 nM.
`NC(=O)c1cccc2[nH]c(-c3ccc([C@H]4CCCN4CC4CC4)s3)nc12` [Example 20, 2-(5-((2R)-1-(cyclopropylmethyl)pyrrolidin-2-yl)thien-2-yl)-1H-benzimidazole-4-carboxamide]: the inhibition constant Ki amounted to 5 nM.
As for `NC(=O)c1cccc2[nH]c(-c3ccc(C4CCCN4C4CCCC4)nc3)nc12` (centres unmarked) [Example 47, 2-[6-(1-cyclopentylpyrrolidin-2-yl),pyridin-3-yl]-1H-benzimidazole-4-carboxamide], the inhibition constant Ki was found to be 14 nM.
In the case of `NC(=O)c1cccc2[nH]c(-c3ccc(-c4ccccn4)s3)nc12` [Example 10, 2-(5-pyridin-2-ylthien-2-yl)-1H-benzimidazole-4-carboxamide], the inhibition constant (Ki) amounted to 3.1 nM.
For the molecule `NC(=O)c1cccc2[nH]c(-c3ccc(-c4cnco4)nc3)nc12` [Example 50, 2-[6-(1,3-oxazol-5-yl)pyridin-3-yl]-1H-benzimidazole-4-carboxamide], the inhibition constant Ki was 0.8 nM.
Turning to `NC(=O)c1cccc2[nH]c(-c3ccc(-c4cccnc4)s3)nc12` [Example 13, 2-(5-pyridin-3-ylthien-2-yl)-1H-benzimidazole-4-carboxamide], the Ki came to 2.4 nM.
Turning to `Cc1nnc(-c2ccc(-c3nc4c(C(N)=O)cccc4[nH]3)nc2)o1` [Example 53, 2-[5-(5-methyl-1,3,4-oxadiazol-2-yl)pyridin-2-yl]-1H-benzimidazole-4-carboxamide], the inhibitory constant (Ki) is 317 nM.
Take `CN1CCC(c2nc(-c3nc4c(C(N)=O)cccc4[nH]3)cs2)CC1` [Example 6, 2-(2-(1-methylpiperidin-4-yl)-1,3-thiazol-4-yl)-1H-benzimidazole-4-carboxamide]: the inhibition constant (Ki) came to 45 nM.
To `NC(=O)c1cccc2[nH]c(-c3ccc(C4CCCCN4)s3)nc12` (centres unmarked) [Example 28, 2-(5-piperidin-2-ylthien-2-yl)-1H-benzimidazole-4-carboxamide] belongs 7 nM.
As for `CCCN1CCC[C@@H]1c1ccc(-c2nc3c(C(N)=O)cccc3[nH]2)s1` [Example 19, 2-(5-((2R)-1-propylpyrrolidin-2-yl)thien-2-yl)-1H-benzimidazole-4-carboxamide], the inhibition constant Ki stood at 8 nM.
For `NC(=O)c1cccc2[nH]c(-c3ccc([C@H]4CCCN4C4CCOCC4)s3)nc12` [Example 24, 2-(5-((2R)-1-tetrahydro-2H-pyran-4-ylpyrrolidin-2-yl)thien-2-yl)-1H-benzimidazole-4-carboxamide], the inhibitory constant (Ki) was found to be 12 nM.
